Molecular target: T1, Amine oxidase [flavin-containing] A (Homo sapiens, UniProt P21397)
T1 sequence (P21397 whole entry): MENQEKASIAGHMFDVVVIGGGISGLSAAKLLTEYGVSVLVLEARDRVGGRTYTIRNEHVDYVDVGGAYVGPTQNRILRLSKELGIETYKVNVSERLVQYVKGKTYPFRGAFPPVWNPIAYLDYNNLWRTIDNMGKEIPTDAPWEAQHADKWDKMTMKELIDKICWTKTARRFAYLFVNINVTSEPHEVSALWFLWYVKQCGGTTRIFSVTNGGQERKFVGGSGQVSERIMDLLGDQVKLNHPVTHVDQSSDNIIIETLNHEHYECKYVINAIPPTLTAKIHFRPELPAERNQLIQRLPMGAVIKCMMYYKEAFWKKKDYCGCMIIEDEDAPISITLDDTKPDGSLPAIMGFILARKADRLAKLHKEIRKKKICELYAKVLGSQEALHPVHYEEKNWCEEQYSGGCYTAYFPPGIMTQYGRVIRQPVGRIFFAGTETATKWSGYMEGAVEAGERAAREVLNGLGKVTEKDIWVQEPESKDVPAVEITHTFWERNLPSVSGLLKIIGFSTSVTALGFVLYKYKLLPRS
Experiment: DRUGMATRIX: Monoamine Oxidase MAO-A enzyme inhibition (substrate: Kynuramine)
Set-up: species or system BTI-TN-5B1-4
Settings: bti-tn-5b1-4; Not Active = under 50% inhibition at 10 µM

SMILES	IC50
CCCC1O[C@@H]2C[C@H]3[C@@H]4CCC5=CC(=O)C=C[C@]5(C)[C@H]4[C@@H](O)C[C@]3(C)[C@]2(C(=O)CO)O1 (some centres not stated) [BUDESONIDE]	Not Active
CC1Cc2ccccc2N1NC(=O)c1ccc(Cl)c(S(N)(=O)=O)c1 (configuration not stated) [INDAPAMIDE]	Not Active
CCC1(c2ccc(N)cc2)CCC(=O)NC1=O (configuration not stated) [AMINOGLUTETHIMIDE]	Not Active
CNCCCN1c2ccccc2CCc2ccccc21 [DESIPRAMINE]	Not Active
Cc1ccccc1N1C(=O)c2cc(S(N)(=O)=O)c(Cl)cc2NC1C (configuration not stated) [METOLAZONE]	Not Active
C1CCC(C(CC2CCCCN2)C2CCCCC2)CC1 (configuration not stated) [PERHEXILINE]	Not Active
N=C(N)NCCN1CCCCCCC1 [GUANETHIDINE]	Not Active

Molecular target: Vasopressin V1a receptor (Homo sapiens, UniProt P37288); note: in other assays of this panel Not Active means under 50% inhibition at 10 µM
Sequence (P37288 whole entry): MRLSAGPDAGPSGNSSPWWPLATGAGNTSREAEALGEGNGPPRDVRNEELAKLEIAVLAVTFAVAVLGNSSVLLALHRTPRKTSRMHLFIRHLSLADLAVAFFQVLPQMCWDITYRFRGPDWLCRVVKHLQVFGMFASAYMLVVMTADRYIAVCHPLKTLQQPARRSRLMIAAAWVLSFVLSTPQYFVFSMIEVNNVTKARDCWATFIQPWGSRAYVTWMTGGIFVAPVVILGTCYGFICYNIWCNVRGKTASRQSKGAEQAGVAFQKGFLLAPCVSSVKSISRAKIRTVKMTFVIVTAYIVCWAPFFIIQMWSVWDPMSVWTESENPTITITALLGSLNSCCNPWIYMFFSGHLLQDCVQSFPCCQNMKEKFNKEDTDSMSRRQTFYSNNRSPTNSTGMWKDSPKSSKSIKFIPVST
Format: cell membranes, Membrane
Settings: hek293

SMILES	IC50
CCCC1O[C@@H]2C[C@H]3[C@@H]4CCC5=CC(=O)C=C[C@]5(C)[C@H]4[C@@H](O)C[C@]3(C)[C@]2(C(=O)CO)O1 (some centres not stated) [BUDESONIDE]	Not Active
CC1Cc2ccccc2N1NC(=O)c1ccc(Cl)c(S(N)(=O)=O)c1 (configuration not stated) [INDAPAMIDE]	Not Active
CCC1(c2ccc(N)cc2)CCC(=O)NC1=O (configuration not stated) [AMINOGLUTETHIMIDE]	Not Active
CNCCCN1c2ccccc2CCc2ccccc21 [DESIPRAMINE]	Not Active
Cc1ccccc1N1C(=O)c2cc(S(N)(=O)=O)c(Cl)cc2NC1C (configuration not stated) [METOLAZONE]	Not Active
C1CCC(C(CC2CCCCN2)C2CCCCC2)CC1 (configuration not stated) [PERHEXILINE]	Not Active
N=C(N)NCCN1CCCCCCC1 [GUANETHIDINE]	Not Active

Molecular target: Delta-type opioid receptor (Homo sapiens, UniProt P41143); note: in other assays of this panel Not Active means under 50% inhibition at 10 µM
Sequence (P41143 whole entry): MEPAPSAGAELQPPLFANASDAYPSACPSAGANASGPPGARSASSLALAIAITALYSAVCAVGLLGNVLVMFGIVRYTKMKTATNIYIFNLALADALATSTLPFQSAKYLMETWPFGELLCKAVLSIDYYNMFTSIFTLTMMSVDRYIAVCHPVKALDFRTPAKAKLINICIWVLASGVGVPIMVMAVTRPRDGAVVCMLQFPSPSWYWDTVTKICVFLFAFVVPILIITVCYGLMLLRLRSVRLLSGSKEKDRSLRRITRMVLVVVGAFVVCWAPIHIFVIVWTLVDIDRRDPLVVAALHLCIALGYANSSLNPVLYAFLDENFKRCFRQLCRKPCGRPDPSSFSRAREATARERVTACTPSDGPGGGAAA
Format: cell membranes, HEK293, Membrane
Settings: hek293

SMILES	IC50
CCCC1O[C@@H]2C[C@H]3[C@@H]4CCC5=CC(=O)C=C[C@]5(C)[C@H]4[C@@H](O)C[C@]3(C)[C@]2(C(=O)CO)O1 (some centres not stated) [BUDESONIDE]	Not Active
CC1Cc2ccccc2N1NC(=O)c1ccc(Cl)c(S(N)(=O)=O)c1 (configuration not stated) [INDAPAMIDE]	Not Active
CCC1(c2ccc(N)cc2)CCC(=O)NC1=O (configuration not stated) [AMINOGLUTETHIMIDE]	Not Active
CNCCCN1c2ccccc2CCc2ccccc21 [DESIPRAMINE]	Not Active
Cc1ccccc1N1C(=O)c2cc(S(N)(=O)=O)c(Cl)cc2NC1C (configuration not stated) [METOLAZONE]	Not Active
C1CCC(C(CC2CCCCN2)C2CCCCC2)CC1 (configuration not stated) [PERHEXILINE]	Not Active
N=C(N)NCCN1CCCCCCC1 [GUANETHIDINE]	Not Active

Molecular target: T2, Calcitonin receptor (Homo sapiens, UniProt P30988); note: in other assays of this panel Not Active means under 50% inhibition at 10 µM
T2 sequence (P30988 whole entry): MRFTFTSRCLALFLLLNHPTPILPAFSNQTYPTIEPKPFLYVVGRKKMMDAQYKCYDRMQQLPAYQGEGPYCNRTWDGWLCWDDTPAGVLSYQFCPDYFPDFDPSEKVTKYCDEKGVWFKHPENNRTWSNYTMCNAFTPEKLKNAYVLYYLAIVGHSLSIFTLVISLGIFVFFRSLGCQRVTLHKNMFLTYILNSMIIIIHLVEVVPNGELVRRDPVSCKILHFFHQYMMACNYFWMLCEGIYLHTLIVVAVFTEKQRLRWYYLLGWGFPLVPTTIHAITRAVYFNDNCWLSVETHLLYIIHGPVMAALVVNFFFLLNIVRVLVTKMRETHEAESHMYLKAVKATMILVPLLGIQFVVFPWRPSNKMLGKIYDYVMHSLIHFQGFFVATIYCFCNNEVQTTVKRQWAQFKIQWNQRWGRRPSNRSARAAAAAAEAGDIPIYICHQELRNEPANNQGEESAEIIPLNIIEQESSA
Format: cell membranes, Membrane
Settings: t47d

SMILES	IC50
CCCC1O[C@@H]2C[C@H]3[C@@H]4CCC5=CC(=O)C=C[C@]5(C)[C@H]4[C@@H](O)C[C@]3(C)[C@]2(C(=O)CO)O1 (some centres not stated) [BUDESONIDE]	Not Active
CC1Cc2ccccc2N1NC(=O)c1ccc(Cl)c(S(N)(=O)=O)c1 (configuration not stated) [INDAPAMIDE]	Not Active
CCC1(c2ccc(N)cc2)CCC(=O)NC1=O (configuration not stated) [AMINOGLUTETHIMIDE]	Not Active
CNCCCN1c2ccccc2CCc2ccccc21 [DESIPRAMINE]	Not Active
Cc1ccccc1N1C(=O)c2cc(S(N)(=O)=O)c(Cl)cc2NC1C (configuration not stated) [METOLAZONE]	Not Active
C1CCC(C(CC2CCCCN2)C2CCCCC2)CC1 (configuration not stated) [PERHEXILINE]	Not Active
N=C(N)NCCN1CCCCCCC1 [GUANETHIDINE]	Not Active

Molecular target: C-C chemokine receptor type 2 (Homo sapiens, UniProt P41597); note: in other assays of this panel Not Active means under 50% inhibition at 10 µM
Sequence (P41597 whole entry): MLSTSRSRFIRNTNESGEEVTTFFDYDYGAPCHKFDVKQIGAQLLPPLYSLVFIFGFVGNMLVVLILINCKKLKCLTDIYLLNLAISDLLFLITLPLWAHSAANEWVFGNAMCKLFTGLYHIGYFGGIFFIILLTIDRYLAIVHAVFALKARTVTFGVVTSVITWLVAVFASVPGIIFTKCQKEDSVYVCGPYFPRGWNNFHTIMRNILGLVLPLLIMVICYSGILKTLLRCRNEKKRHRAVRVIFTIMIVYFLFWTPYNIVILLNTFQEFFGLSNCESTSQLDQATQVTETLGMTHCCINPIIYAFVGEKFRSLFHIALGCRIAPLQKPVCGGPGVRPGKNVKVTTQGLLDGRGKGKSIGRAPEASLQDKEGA
Format: cell membranes, CHO-K1, Membrane
Settings: cho-k1

SMILES	IC50
CCCC1O[C@@H]2C[C@H]3[C@@H]4CCC5=CC(=O)C=C[C@]5(C)[C@H]4[C@@H](O)C[C@]3(C)[C@]2(C(=O)CO)O1 (some centres not stated) [BUDESONIDE]	Not Active
CC1Cc2ccccc2N1NC(=O)c1ccc(Cl)c(S(N)(=O)=O)c1 (configuration not stated) [INDAPAMIDE]	Not Active
CCC1(c2ccc(N)cc2)CCC(=O)NC1=O (configuration not stated) [AMINOGLUTETHIMIDE]	Not Active
CNCCCN1c2ccccc2CCc2ccccc21 [DESIPRAMINE]	Not Active
Cc1ccccc1N1C(=O)c2cc(S(N)(=O)=O)c(Cl)cc2NC1C (configuration not stated) [METOLAZONE]	Not Active
C1CCC(C(CC2CCCCN2)C2CCCCC2)CC1 (configuration not stated) [PERHEXILINE]	Not Active
N=C(N)NCCN1CCCCCCC1 [GUANETHIDINE]	Not Active

Molecular target: Substance-P receptor (Homo sapiens, UniProt P25103); note: in other assays of this panel Not Active means under 50% inhibition at 10 µM
Sequence (P25103 whole entry): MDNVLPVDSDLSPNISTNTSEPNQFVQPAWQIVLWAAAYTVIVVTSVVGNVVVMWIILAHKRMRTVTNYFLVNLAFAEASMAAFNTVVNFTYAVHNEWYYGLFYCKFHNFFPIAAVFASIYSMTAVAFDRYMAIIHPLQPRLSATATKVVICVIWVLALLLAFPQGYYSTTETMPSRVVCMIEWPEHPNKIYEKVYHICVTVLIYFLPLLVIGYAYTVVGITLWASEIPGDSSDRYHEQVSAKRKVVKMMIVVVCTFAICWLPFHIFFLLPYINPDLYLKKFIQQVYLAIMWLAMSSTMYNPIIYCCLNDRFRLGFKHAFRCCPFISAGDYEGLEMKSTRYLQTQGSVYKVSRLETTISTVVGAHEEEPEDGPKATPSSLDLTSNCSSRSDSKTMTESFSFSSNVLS
Format: cell membranes, CHO, Membrane
Settings: cho

SMILES	IC50
CCCC1O[C@@H]2C[C@H]3[C@@H]4CCC5=CC(=O)C=C[C@]5(C)[C@H]4[C@@H](O)C[C@]3(C)[C@]2(C(=O)CO)O1 (some centres not stated) [BUDESONIDE]	Not Active
CC1Cc2ccccc2N1NC(=O)c1ccc(Cl)c(S(N)(=O)=O)c1 (configuration not stated) [INDAPAMIDE]	Not Active
CCC1(c2ccc(N)cc2)CCC(=O)NC1=O (configuration not stated) [AMINOGLUTETHIMIDE]	Not Active
CNCCCN1c2ccccc2CCc2ccccc21 [DESIPRAMINE]	Not Active
Cc1ccccc1N1C(=O)c2cc(S(N)(=O)=O)c(Cl)cc2NC1C (configuration not stated) [METOLAZONE]	Not Active
C1CCC(C(CC2CCCCN2)C2CCCCC2)CC1 (configuration not stated) [PERHEXILINE]	Not Active
N=C(N)NCCN1CCCCCCC1 [GUANETHIDINE]	Not Active

Molecular target: T3, C-X-C chemokine receptor type 1 (Homo sapiens, UniProt P25024); note: in other assays of this panel Not Active means under 50% inhibition at 10 µM
T3 sequence (P25024 whole entry): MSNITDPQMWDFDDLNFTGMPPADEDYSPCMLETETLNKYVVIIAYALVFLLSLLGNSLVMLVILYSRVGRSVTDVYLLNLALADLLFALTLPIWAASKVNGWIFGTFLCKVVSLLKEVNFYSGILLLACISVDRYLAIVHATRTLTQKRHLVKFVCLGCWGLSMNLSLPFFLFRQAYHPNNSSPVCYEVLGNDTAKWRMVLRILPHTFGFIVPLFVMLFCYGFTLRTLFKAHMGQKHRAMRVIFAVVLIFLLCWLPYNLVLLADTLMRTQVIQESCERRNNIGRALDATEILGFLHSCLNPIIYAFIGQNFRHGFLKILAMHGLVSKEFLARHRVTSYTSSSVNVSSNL
Settings: not given

SMILES	IC50
CCCC1O[C@@H]2C[C@H]3[C@@H]4CCC5=CC(=O)C=C[C@]5(C)[C@H]4[C@@H](O)C[C@]3(C)[C@]2(C(=O)CO)O1 (some centres not stated) [BUDESONIDE]	Not Active
CC1Cc2ccccc2N1NC(=O)c1ccc(Cl)c(S(N)(=O)=O)c1 (configuration not stated) [INDAPAMIDE]	Not Active
CCC1(c2ccc(N)cc2)CCC(=O)NC1=O (configuration not stated) [AMINOGLUTETHIMIDE]	Not Active
CNCCCN1c2ccccc2CCc2ccccc21 [DESIPRAMINE]	Not Active
Cc1ccccc1N1C(=O)c2cc(S(N)(=O)=O)c(Cl)cc2NC1C (configuration not stated) [METOLAZONE]	Not Active
C1CCC(C(CC2CCCCN2)C2CCCCC2)CC1 (configuration not stated) [PERHEXILINE]	Not Active
N=C(N)NCCN1CCCCCCC1 [GUANETHIDINE]	Not Active

Test system: not listed separately
Experiment: DRUGMATRIX: Calcium Channel Type L, Dihydropyridine radioligand binding (ligand: [3H] Nitrendipine)
Format: cell membranes, Rattus norvegicus, Wistar, Cerebral cortex, Membrane
Settings: Not Active = under 50% inhibition at 10 µM

SMILES	IC50	Ki
CCCC1O[C@@H]2C[C@H]3[C@@H]4CCC5=CC(=O)C=C[C@]5(C)[C@H]4[C@@H](O)C[C@]3(C)[C@]2(C(=O)CO)O1 (some centres not stated) [BUDESONIDE]	Not Active	Not Active
CC1Cc2ccccc2N1NC(=O)c1ccc(Cl)c(S(N)(=O)=O)c1 (configuration not stated) [INDAPAMIDE]	Not Active	Not Active
CCC1(c2ccc(N)cc2)CCC(=O)NC1=O (configuration not stated) [AMINOGLUTETHIMIDE]	Not Active	Not Active
CNCCCN1c2ccccc2CCc2ccccc21 [DESIPRAMINE]	Not Active	Not Active
Cc1ccccc1N1C(=O)c2cc(S(N)(=O)=O)c(Cl)cc2NC1C (configuration not stated) [METOLAZONE]	Not Active	Not Active
C1CCC(C(CC2CCCCN2)C2CCCCC2)CC1 (configuration not stated) [PERHEXILINE]	Not Active	Not Active
N=C(N)NCCN1CCCCCCC1 [GUANETHIDINE]	Not Active	Not Active

Test system: not listed separately
Experiment: DRUGMATRIX: Tumor Necrosis Factor (TNF), Non-Selective radioligand binding (ligand: [125I] TNF-alpha)
Format: cell membranes, Membrane
Settings: u-937; Not Active = under 50% inhibition at 10 µM

SMILES	IC50	Ki
CCCC1O[C@@H]2C[C@H]3[C@@H]4CCC5=CC(=O)C=C[C@]5(C)[C@H]4[C@@H](O)C[C@]3(C)[C@]2(C(=O)CO)O1 (some centres not stated) [BUDESONIDE]	Not Active	Not Active
CC1Cc2ccccc2N1NC(=O)c1ccc(Cl)c(S(N)(=O)=O)c1 (configuration not stated) [INDAPAMIDE]	Not Active	Not Active
CCC1(c2ccc(N)cc2)CCC(=O)NC1=O (configuration not stated) [AMINOGLUTETHIMIDE]	Not Active	Not Active
CNCCCN1c2ccccc2CCc2ccccc21 [DESIPRAMINE]	Not Active	Not Active
Cc1ccccc1N1C(=O)c2cc(S(N)(=O)=O)c(Cl)cc2NC1C (configuration not stated) [METOLAZONE]	Not Active	Not Active
C1CCC(C(CC2CCCCN2)C2CCCCC2)CC1 (configuration not stated) [PERHEXILINE]	Not Active	Not Active
N=C(N)NCCN1CCCCCCC1 [GUANETHIDINE]	Not Active	Not Active

Reference: ChEMBL document CHEMBL1909046, “DrugMatrix in vitro pharmacology data”
